In test [1] the target is recombinant human AMPK complex 1 (containing α1β1γ1) (Homo sapiens, UniProt Q13131+Q9Y478). Kind of test: AMPKSAMSF in vitro AMPK activation assay, complex 1. As to conditions: for Emax: 10-point titration, expressed as % maximum AMP activation; for EC50: inflection point reflecting 50% of the maximum activation, table for human AMPK Complex 1. It is filed as biochemical. The procedure: The recombinant human AMPK complex 1 (containing α1β1γ1) or AMPK complex 7 (containing α2β1γ1) was obtained from baculovirus expression system. Recombinant viruses were generated by cotransfection of AMPK/pBacPak9 clones with Baculogold baculovirus DNA (Pharmingen) in spodoptera frugiperda 21 cells according to the manufacturer's instructions. Each round of virus amplification was performed for 5 days in Grace's medium containing 10% serum. Virus that had been subjected to three rounds of amplification was used for all protein production procedures. To express the AMPK complex, sf21 cells were adapted to serum free medium (SF900 II, Invitrogen) by sequential dilution from serum containing stocks into SF900II medium and maintained in shaker flasks at 90 rpm at 27° C. The recombinant AMPK enzyme complex was produced by triple infection, one recombinant virus for each of the subunits, in sf21 cells under serum free conditions. Cells were infected in log phase, 1×10^6 cells/ml, at a multiplicity of infection of ˜5. Cells were harvested by centrifugation at 10,000×g for 15 minutes after 72 hours of infection with viruses. The insect cell pellet from 2 liters of culture was resuspended in 50 ml lysis buffer (20 mM Tris-HCl, 50 mM NaCl, 50 mM NaF, 30 mM Na PPi, 0.25 M sucrose, 10 mM ZnCl2, 2 mM DTT, 0.4 mg/ml digitonin) and subjected to two cycles of freeze-thaw lysis in a dry-ice ethanol bath. Insoluble material was removed by centrifugation at 10,000×g and the supernatant was fractionated with use of polyethylene glycol (PEG). The protein fraction precipitating between 2.5 and 6% PEG was used for further purification using a Blue-Sepharose step (Zhou et al, J. Clin. Invest. 108, 1167-1174, 2001).
Chain of recombinant human AMPK complex 1 (containing α1β1γ1) (Q13131 whole entry): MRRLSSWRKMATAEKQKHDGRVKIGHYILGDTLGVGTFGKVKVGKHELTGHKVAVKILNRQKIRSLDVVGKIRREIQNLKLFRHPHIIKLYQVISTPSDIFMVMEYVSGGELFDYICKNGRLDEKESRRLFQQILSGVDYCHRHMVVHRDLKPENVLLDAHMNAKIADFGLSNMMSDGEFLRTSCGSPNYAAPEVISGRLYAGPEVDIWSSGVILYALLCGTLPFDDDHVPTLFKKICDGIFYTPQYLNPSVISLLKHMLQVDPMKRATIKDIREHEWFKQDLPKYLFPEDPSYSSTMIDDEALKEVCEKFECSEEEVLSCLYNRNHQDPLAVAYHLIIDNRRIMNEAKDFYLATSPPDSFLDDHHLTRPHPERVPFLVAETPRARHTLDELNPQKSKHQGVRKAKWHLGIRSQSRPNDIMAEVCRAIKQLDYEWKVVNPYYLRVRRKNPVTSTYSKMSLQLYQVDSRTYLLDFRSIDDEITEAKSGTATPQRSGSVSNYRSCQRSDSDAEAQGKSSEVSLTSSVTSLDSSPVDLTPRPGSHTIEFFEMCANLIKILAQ
Chain of recombinant human AMPK complex 1 (containing α1β1γ1) (Q9Y478 whole entry): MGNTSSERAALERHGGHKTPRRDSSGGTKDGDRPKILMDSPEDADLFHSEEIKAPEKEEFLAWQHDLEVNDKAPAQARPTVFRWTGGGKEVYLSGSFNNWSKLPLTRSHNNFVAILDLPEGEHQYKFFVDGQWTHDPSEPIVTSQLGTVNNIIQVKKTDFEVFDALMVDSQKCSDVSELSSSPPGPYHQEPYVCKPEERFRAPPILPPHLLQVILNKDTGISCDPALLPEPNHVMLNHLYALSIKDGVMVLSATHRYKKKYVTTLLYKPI
Chain of recombinant human AMPK complex 1 (containing α1β1γ1) (P54619 whole entry partner): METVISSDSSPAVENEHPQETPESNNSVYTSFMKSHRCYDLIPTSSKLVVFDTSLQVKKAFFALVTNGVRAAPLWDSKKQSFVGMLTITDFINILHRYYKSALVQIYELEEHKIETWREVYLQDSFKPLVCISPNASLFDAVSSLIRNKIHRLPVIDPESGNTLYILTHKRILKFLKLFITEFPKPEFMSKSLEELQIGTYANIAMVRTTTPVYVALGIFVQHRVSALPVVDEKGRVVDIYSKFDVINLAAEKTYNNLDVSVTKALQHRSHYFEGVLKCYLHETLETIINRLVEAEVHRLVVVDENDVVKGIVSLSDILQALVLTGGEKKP
The in vitro AMPK activation assay is performed in a volume of 30 μl in a 384-well plate. Enzyme reactions were assembled in the microtiter plate by adding 15 μl of 2× enzyme in assay buffer (20 mM HEPES, pH 7.3, 5 mM MgCl2, 3 mM DTT, 0.01% Brij 35 and CamK Kinase, to activate AMPK) to wells which contained either DMSO or compound. The reaction was initiated with the addition of 15 μl 2× substrate mixture containing 200 μM ATP, and 3.0 μM fluorescently labeled SAMS (5-FAM-HMRSAMSGLHLVKRR-COOH) in assay buffer. After 45-minute incubation at 25° C., the reaction was stopped by the addition of 70 μl stop buffer (100 mM HEPES, pH 7.3, 40 mM EDTA, 0.015% Brij 35). Phosphorylated 5-FAM SAMS product is assessed using a Caliper EZ Reader LabChip microfluidics reader. Product conversion is determined by calculating the peak heights of the substrate and product and reporting the product/(product+substrate) peak ratio. The 10-point titration data were expressed as % maximum AMP activation. The results were plotted using 4 parameter fit and the inflection point reflecting 50% of the maximum activation was reported as the EC50.

The test system of another test is ob/ob and db/db mice. As to conditions: following 8 weeks of administration; cited from earlier work.

For `CC(C)(O)c1ccc(-c2ccc(-c3nc4nc(O[C@H]5CO[C@H](CO)[C@@H](O)[C@@H]5O)[nH]c4cc3Cl)cc2)cc1` [Example 66], in test [1], the Emax turned out to be 410% and the EC50 came to 0.013 µM. In the same order, the values of `NS(=O)(=O)c1ccc(-c2ccc(-c3nc4nc(O[C@H]5CO[C@H](CO)[C@@H](O)C5)[nH]c4cc3Cl)cc2)cc1` [Example 56] are 392% and 0.011 µM.

As for `CC(C)(O)c1ccc(-c2ccc(-c3nc4nc(O[C@H]5CO[C@H](CO)[C@@H](O)C5)[nH]c4cc3Cl)cc2)cc1` [Example 39, (2R,3 S,5R)-5-((6-chloro-5-(4′-(2-hydroxypropan-2-yl)-[1,1′-biphenyl]-4-yl)-1H-imidazo[4,5-b]pyridin-2-yl)oxy)-2-(hydroxymethyl)tetrahydro-2H-pyran-3-ol], in test [1], the Emax is 379% and the EC50 was determined as 0.004 µM. The like results for `COC(=O)Nc1ccc(-c2ccc(-c3nc4[nH]c(O[C@H]5CO[C@H](CO)[C@@H](O)C5)nc4cc3Cl)cc2)cc1` [Example 74, Methyl (4′-(6-chloro-2-(((3R,5S,6R)-5-hydroxy-6-(hydroxymethyl)tetrahydro-2H-pyran-3-yl)oxy)-1H-imidazo[4,5-b]pyridin-5-yl)-[1,1′-biphenyl]-4-yl)carbamate] were, in that order, 460% and 0.025 µM.

In the case of `OC[C@H]1OC[C@H](Oc2nc3nc(-c4ccc(-c5ccc(-c6ccn[nH]6)cc5)cc4)c(Cl)cc3[nH]2)C[C@@H]1O` [Example 46], in test [1], the Emax worked out at 619% and the EC50 stood at 0.015 µM. In the case of `O=S(=O)(CC1COC1)c1ccc(-c2ccc(-c3nc4nc(O[C@H]5CO[C@H](CO)[C@@H](O)C5)[nH]c4cc3Cl)cc2)cc1` [Example 54], in test [1], the maximal response (Emax) was 767% and the half-maximal effective concentration (EC50) came to 0.009 µM. For the molecule `NC(=O)c1ncn([C@@H]2O[C@H](CO)[C@@H](O)[C@H]2O)c1N` [AICAR], the blood glucose reduction in the test on ob/ob and db/db mice is 35%. Consider `CC(CO)Oc1ccc(-c2nc3nc(O[C@H]4CO[C@H](CO)[C@@H](O)C4)[nH]c3cc2Cl)cc1` (stereo partly drawn) [Example 1, (2R,3S,5R)-5-((6-chloro-5-(4-((1-hydroxypropan-2-yl)oxy)phenyl)-1H-imidazo[4,5-b]pyridin-2-yl)oxy)-2-(hydroxymethyl)tetrahydro-2H-pyran-3-ol], for which, in test [1], the Emax came out at 574% and the 50% effective concentration (EC50) came out at 0.128 µM. In the same order, the values of `O=C(c1ccc(-c2ccc(-c3nc4nc(O[C@H]5CO[C@H](CO)[C@@H](O)[C@@H]5O)[nH]c4cc3Cl)cc2)cc1)N1CCC(O)CC1` [Example 68] are 419% and 0.006 µM. The like results for `O=S(=O)(c1ccc(-c2ccc(-c3nc4nc(O[C@H]5CO[C@H](CO)[C@@H](O)C5)[nH]c4cc3Cl)cc2)cc1)C1COC1` [Example 55] were, in that order, 752% and 0.008 µM. As to `O=C(Nc1ccc(-c2ccc(-c3nc4nc(O[C@H]5CO[C@H](CO)[C@@H](O)C5)[nH]c4cc3Cl)cc2)cc1)OCC(O)CO` (stereo partly shown) [Example 77], in test [1], the Emax came out at 494% and the EC50 was found to be 0.015 µM.

Consider `CNC(=O)c1ccc(-c2ccc(-c3nc4nc(O[C@H]5CO[C@H](CO)[C@@H](O)C5)[nH]c4cc3Cl)cc2)cc1` [Example 71, 4′-(6-chloro-2-(((3R,5 S,6R)-5-hydroxy-6-(hydroxymethyl)tetrahydro-2H-pyran-3-yl)oxy)-1H-imidazo[4,5-b]pyridin-5-yl)-N-methyl-[1,1′-biphenyl]-4-carboxamide], for which, in test [1], the maximal response (Emax) was found to be 443% and the EC50 came to 0.006 µM. In the same order, the values of `OC[C@H]1OC[C@H](Oc2nc3nc(-c4ccc(N5CC[C@@H](O)C5)cc4)c(Cl)cc3[nH]2)C[C@@H]1O` [Example 34] are 367% and 0.019 µM.

Turning to `NC(c1ccc(-c2ccc(-c3nc4nc(O[C@H]5CO[C@H](CO)[C@@H](O)C5)[nH]c4cc3Cl)cc2)cc1)C(F)(F)F` (stereo partly drawn) [Example 49, (2R,3 S,5R)-5-((5-(4′-(1-amino-2,2,2-trifluoroethyl)-[1,1′-biphenyl]-4-yl)-6-chloro-1H-imidazo[4,5-b]pyridin-2-yl)oxy)-2-(hydroxymethyl)tetrahydro-2H-pyran-3-ol], in test [1], the Emax was found to be 464% and the EC50 was determined as 0.009 µM. In the same order, the values of `CC(C)(O)[C@H]1OC[C@H](Oc2nc3cc(Cl)c(-c4ccc(-c5ccccc5)cc4)nc3[nH]2)C[C@@H]1O` [Example 70, (2S,3 S,5R)-5-((5-([1,1′-biphenyl]-4-yl)-6-chloro-1H-imidazo[4,5-b]pyridin-2-yl)oxy)-2-(2-hydroxypropan-2-yl)tetrahydro-2H-pyran-3-ol] are 417% and 0.031 µM. The like results for `OC[C@H]1OC[C@H](Oc2nc3nc(-c4ccc(N5CC[C@H](F)C5)cc4)c(Cl)cc3[nH]2)C[C@@H]1O` [Example 37] were, in that order, 473% and 0.022 µM. In the same order, the values of `O=C(c1ccc(-c2ccc(-c3nc4nc(O[C@H]5CO[C@H](CO)[C@@H](O)C5)[nH]c4cc3Cl)cc2)cc1)N1CCC(O)(C(F)(F)F)CC1` [Example 73] are 249% and 0.008 µM.

For the molecule `O=C(c1ccc(-c2ccc(-c3nc4nc(O[C@H]5CO[C@H](CO)[C@@H](O)C5)[nH]c4cc3Cl)cc2)cc1)N1CC[C@@H](O)C1` [Example 61, (4′-(6-chloro-2-(((3R,5 S,6R)-5-hydroxy-6-(hydroxymethyl)tetrahydro-2H-pyran-3-yl)oxy)-1H-imidazo[4,5-b]pyridin-5-yl)-[1,1′-biphenyl]-4-yl)((R)-3-hydroxypyrrolidin-1-yl)methanone], in test [1], the Emax was 568% and the EC50 worked out at 0.036 µM. In the same order, the values of `OC[C@H]1OC[C@H](Oc2nc3nc(-c4ccc(-c5ccccc5)cc4)c(Cl)cc3[nH]2)[C@@H](O)[C@@H]1O` [Example 62, (2R,3 S,4S,5 S)-5-((5-([1,1′-biphenyl]-4-yl)-6-chloro-1H-imidazo[4,5-b]pyridin-2-yl)oxy)-2-(hydroxymethyl)tetrahydro-2H-pyran-3,4-diol] are 545% and 0.017 µM. The like results for `OC[C@H]1OC[C@H](Oc2nc3nc(-c4ccc(N5CC[C@@H](F)C5)cc4)c(Cl)cc3[nH]2)C[C@@H]1O` [Example 35] were, in that order, 489% and 0.018 µM. In the same order, the values of `CS(=O)(=O)c1ccc(-c2ccc(-c3nc4nc(O[C@H]5CO[C@H](CO)[C@@H](O)[C@@H]5O)[nH]c4cc3Cl)cc2)cc1` [Example 67] are 418% and 0.003 µM. With `OC[C@H]1OC[C@H](Oc2nc3nc(-c4ccc(-c5ccc(-n6nccn6)cc5)cc4)c(Cl)cc3[nH]2)C[C@@H]1O` [Example 47], in test [1], the Emax was 590% and the EC50 worked out at 0.025 µM. The like results for `CC1(O)CCN(C(=O)c2ccc(-c3ccc(-c4nc5nc(O[C@H]6CO[C@H](CO)[C@@H](O)C6)[nH]c5cc4Cl)cc3)cc2)CC1` [Example 72] were, in that order, 504% and 0.008 µM. Regarding `OC[C@H]1OC[C@H](Oc2nc3nc(-c4ccc(-c5ccc(-n6cccn6)cc5)cc4)c(Cl)cc3[nH]2)C[C@@H]1O` [Example 45], in test [1], the Emax stood at 417% and the EC50 turned out to be 0.003 µM. In the same order, the values of `OC[C@H]1OC[C@H](Oc2nc3nc(-c4ccc(-c5ccc(-n6ccnn6)cc5)cc4)c(Cl)cc3[nH]2)C[C@@H]1O` [Example 48] are 615% and 0.002 µM.
